18 molecules from US9776962B2, “Aromatic compounds with GPR40 agonistic activity” (TAKEDA PHARMACEUTICAL COMPANY LIMITED, priority 2013, dated 2017) can be followed below.

Molecules are shown by their SMILES.

T1 sequence (O14842 whole entry): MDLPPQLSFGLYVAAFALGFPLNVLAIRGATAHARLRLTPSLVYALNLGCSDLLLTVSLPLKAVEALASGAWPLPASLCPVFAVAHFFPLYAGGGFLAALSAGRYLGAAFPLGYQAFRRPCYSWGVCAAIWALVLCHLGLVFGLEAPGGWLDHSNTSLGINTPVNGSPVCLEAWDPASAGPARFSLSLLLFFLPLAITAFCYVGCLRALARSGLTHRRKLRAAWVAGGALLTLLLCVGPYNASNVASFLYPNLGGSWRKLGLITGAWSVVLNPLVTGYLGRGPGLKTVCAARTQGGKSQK

This test addresses T1, human GPR40 (Homo sapiens, UniProt O14842).
T1 construct: expressed in transfected cells
As to the kind of experiment: Evaluation of human GPR40 agonist activity with increase in intracellular Ca2+ concentration as an index (FLIPR). In kind it is cell-based. The note with it: test compound 1 μM; CHO(dhfr−) cells stably expressing human GPR40; 100% = 10 μM compound of Example 153, 0% = DMSO. Here is the method:
Plasmid hGPR40/pAKKO-1.11H for mammalian cells expression, wherein cDNA fragment (SEQ ID NO: 1) encoding the full-length human GPR40 was incorporated into an expression vector pAKKO-1.11H (Biochimica et Biophysica Acta vol. 1219 pp. 251-259 (1994)), was transfected into CHO-dhfr(−) cells (ATCC, CRL-9096) by using Lipofectamine 2000 (Invitrogen:11668-019). After transfection, the limiting dilution-culture method was performed to select clone in selection medium (nucleic acid-free α-MEM (Invitrogen:12561-056)) containing 10% dialyzed bovine serum (Invitrogen:26400-044)). The expression level of human GPR40 mRNA was confirmed by TaqMan PCR (Life Technologies), and the intracellular calcium mobilization activity of GPR40 ligand (γ-linolenic acid) was confirmed by FLIPR (Molecular Devices), and a clone of human GPR40 expressing CHO cells was selected.
Evaluation of Human GPR40 Agonist Activity with Increase in Intracellular Ca^2+ Concentration as an Index
CHO(dhfr−) cells that stably expressed human GPR40 were suspended in MEMα (Nikken Bio Medical Laboratory) containing 10% dialyzed bovine serum (JR Scientific), 10 mM HEPES (Life Technologies), 100 U/mL penicillin, 100 μg/mL streptomycin (Life Technologies), and plated on a 384 well black/clear cell culture plate at 10,000 cells/well. After culture overnight in a CO2 incubator at 37° C., the culture supernatant was removed, and loading buffer [Ca^2+ probe attached to Calcium Kit II-iCellux (DOJINDO) was dissolved in assay buffer (20 mM HEPES, 0.1% fatty acid-free BSA (Sigma-Aldrich), 2.5 mM probenecid (DOJINDO)-containing HESS (Life Technologies))] was added at 30 μL/well. After leaving for 1 hr at room temperature under light shielding, assay buffer containing the test compound at a final concentration of 1 μM was added at 10 μL/well in FLIPR Tetra (Molecular Devices), and the fluorescence amount was successively measured. Human GPR40 agonist activity calculated using an increase in the intracellular Ca^2+ concentration as an index, wherein the activity of 10 μM of the compound of Example 153 was 100%, and the activity when DMSO was added instead of the test compound was 0%.
`COc1ccc(C(=O)N(CC(C)(C)C)c2ccnc(C)n2)c(N2CCC(COc3cc(C(CC(=O)O)C4CC4)ccn3)CC2)c1` (stereo not drawn) [Example 229, 3-cyclopropyl-3-(2-((1-(2-((2,2-dimethylpropyl) (2-methylpyrimidin-4-yl)carbamoyl)-5-methoxyphenyl)piperidin-4-yl)methoxy)pyridin-4-yl)propanoic acid] came in with an activation at 1 µM of 101%.
Molecule `COc1cc(F)c(C(=O)N(CC(C)(C)C)c2cccc(C)n2)c(N2CCC(COc3cc(C(CC(=O)O)C4CC4)ccn3)CC2)c1` (stereo not drawn) [Example 251, 3-cyclopropyl-3-(2-((1-(2-((2,2-dimethylpropyl)(6-methylpyridin-2-yl)carbamoyl)-3-fluoro-5-methoxyphenyl)piperidin-4-yl)methoxy)pyridin-4-yl)propanoic acid] registered an activation at 1 µM of 91%.
Consider `COc1ccc(C(=O)N(CC2(C)CC2)c2ccccn2)c(N2CCC(COc3cc(C(CC(=O)O)C4CC4)ccn3)CC2)c1` (stereo not drawn) [Example 114, 3-cyclopropyl-3-(2-((1-(5-methoxy-2-(((1-methylcyclopropyl)methyl)(pyridin-2-yl)carbamoyl)phenyl)piperidin-4-yl)methoxy)pyridin-4-yl)propanoic acid], for which the activation at 1 µM stood at 98%.
`COc1ccc(C(=O)N2CC(F)(F)OC(F)(F)C2)c(N2CCC(COc3cc(C(CC(=O)O)C4CC4)ccn3)CC2)c1` (stereo not drawn) [Example 202, 3-cyclopropyl-3-(2-((1-(5-methoxy-2-((2,2,6,6-tetrafluoromorpholin-4-yl)carbonyl)phenyl)piperidin-4-yl)methoxy)pyridin-4-yl)propanoic acid] had an activation at 1 µM of 102%.
`COc1ccc(C(=O)Nc2ccccn2)c(N2CCC(COc3cc(C(CC(=O)O)C4CC4)ccn3)CC2)c1` (stereo not drawn) [Example 242, 3-cyclopropyl-3-(2-((1-(5-methoxy-2-(pyridin-2-ylcarbamoyl)phenyl)piperidin-4-yl)methoxy)pyridin-4-yl)propanoic acid] gave an activation at 1 µM of 93%.
Turning to `COc1ccc(C(=O)N(CC(C)(C)C)c2cccc(C)n2)c(N2CCC(COc3cc(C(CC(=O)O)C4CC4)ccn3)CC2)c1` (stereo not drawn) [Example 110, 3-cyclopropyl-3-(2-((1-(2-((2,2-dimethylpropyl)(6-methylpyridin-2-yl)carbamoyl)-5-methoxyphenyl)piperidin-4-yl)methoxy)pyridin-4-yl)propanoic acid], the “Activity (human GPR40 agonist activity)” value came to 104%.
`COc1ccc(C(=O)N(c2ccccn2)C(C)C(C)C)c(N2CCC(COc3cc(C(CC(=O)O)C4CC4)ccn3)CC2)c1` (stereo not drawn) [Example 121, 3-cyclopropyl-3-(2-((1-(5-methoxy-2-((3-methylbutan-2-yl)(pyridin-2-yl)carbamoyl)phenyl)piperidin-4-yl)methoxy)pyridin-4-yl)propanoic acid] gave an activation at 1 µM of 95%.
Turning to `CCc1ccc(C(=O)N(CC(C)(C)C)c2cccc(C)n2)c(N2CCC(COc3cc(C(CC(=O)O)C4CC4)ccn3)CC2)c1` (stereo not drawn) [Example 109, 3-cyclopropyl-3-(2-((1-(2-((2,2-dimethylpropyl)(6-methylpyridin-2-yl)carbamoyl)-5-ethylphenyl)piperidin-4-yl)methoxy)pyridin-4-yl)propanoic acid], the activation at 1 µM came to 90%.
Regarding `COc1ccc(C(=O)N(CC(C)C)c2ccccc2)c(N2CCC(COc3cc(C(CC(=O)O)C4CC4)ccn3)CC2)c1` (stereo not drawn) [Example 133, 3-cyclopropyl-3-(2-((1-(5-methoxy-2-((2-methylpropyl)(phenyl)carbamoyl)phenyl)piperidin-4-yl)methoxy)pyridin-4-yl)propanoic acid], the activation at 1 µM was found to be 98%.
Regarding `CCc1ccc(C(=O)N(CC(F)(F)C(F)(F)F)C(C)C)c(N2CCC(COc3cccc(C(CC(=O)O)C4CC4)c3)CC2)c1` (stereo not drawn) [Example 54, 3-cyclopropyl-3-(3-((1-(5-ethyl-2-((2,2,3,3,3-pentafluoropropyl)(propan-2-yl)carbamoyl)phenyl)piperidin-4-yl)methoxy)phenyl)propanoic acid], the activation at 1 µM amounted to 89%.
For the molecule `COc1ccc(C(=O)N(CC(F)(F)F)c2nccc(C)n2)c(N2CCC(COc3cc(C(CC(=O)O)C4CC4)ccn3)CC2)c1` (stereo not drawn) [Example 169, 3-cyclopropyl-3-(2-((1-(5-methoxy-2-((4-methylpyrimidin-2-yl)(2,2,2-trifluoroethyl)carbamoyl)phenyl)piperidin-4-yl)methoxy)pyridin-4-yl)propanoic acid], the activation at 1 µM was determined as 106%.
Same read-out and setting: under `COc1ccc(C(=O)N(CC2CC2)c2nccc(C(F)(F)F)n2)c(N2CCC(COc3cc(C(CC(=O)O)C4CC4)ccn3)CC2)c1` (stereo not drawn) [Example 237, 3-cyclopropyl-3-(2-((1-(2-((cyclopropylmethyl) (4-(trifluoromethyl)-pyrimidin-2-yl)carbamoyl)-5-methoxyphenyl)piperidin-4-yl)methoxy)pyridin-4-yl)propanoic acid] stands 98%.
In turn, `COc1ccc(C(=O)N(c2ccccn2)C(C)C)c(N2CCC(COc3cc(C(CC(=O)O)C4CC4)ccn3)CC2)c1` (stereo not drawn) [Example 146, 3-cyclopropyl-3-(2-((1-(5-methoxy-2-(propan-2-yl(pyridin-2-yl)carbamoyl)phenyl)piperidin-4-yl)methoxy)pyridin-4-yl)propanoic acid] came in with an activation at 1 µM of 82%.
In the case of `COc1ccc(C(=O)N(CC(C)(C)C)c2ccccn2)c(N2CCC(COc3cc(C(CC(=O)O)C4CC4)ccn3)CC2)c1` (stereo not drawn) [Example 111, 3-cyclopropyl-3-(2-((1-(2-((2,2-dimethylpropyl)(pyridin-2-yl)carbamoyl)-5-methoxyphenyl)piperidin-4-yl)methoxy)pyridin-4-yl)propanoic acid], the activation at 1 µM is 100%.
Turning to `COc1ccc(C(=O)N(CC2(F)CCC2)c2ccccn2)c(N2CCC(COc3cc(C(CC(=O)O)C4CC4)ccn3)CC2)c1` (stereo not drawn) [Example 154, 3-cyclopropyl-3-(2-((1-(2-(((1-fluorocyclobutyl)methyl)(pyridin-2-yl)carbamoyl)-5-methoxyphenyl)piperidin-4-yl)methoxy)pyridin-4-yl)propanoic acid], the activation at 1 µM was determined as 100%.
On the same count and under the same terms, under `COc1ccc(C(=O)N(CC(C)(C)C)c2cccc(C)n2)c(N2CCC(COc3cccc(C4(CC(=O)O)COC4)c3)CC2)c1` [Example 278, (3-(3-((1-(2-((2,2-dimethylpropyl) (6-methylpyridin-2-yl)carbamoyl)-5-methoxyphenyl)piperidin-4-yl)methoxy)phenyl)oxetan-3-yl)acetic acid] stands 78%.
With `COc1cc(N2CCC(COc3cc(C(CC(=O)O)C4CC4)ccn3)CC2)c(C(=O)N(CC(C)(C)C)c2cccc(C)n2)cc1F` (stereo not drawn) [Example 250, 3-cyclopropyl-3-(2-((1-(2-((2,2-dimethylpropyl)(6-methylpyridin-2-yl)carbamoyl)-4-fluoro-5-methoxyphenyl)piperidin-4-yl)methoxy)pyridin-4-yl)propanoic acid], the activation at 1 µM was found to be 91%.
In turn, `COc1ccc(C(=O)N(CC(C)(F)F)c2cc(C)ccn2)c(N2CCC(COc3cc(C(CC(=O)O)C4CC4)ccn3)CC2)c1` (stereo not drawn) [Example 147, 3-cyclopropyl-3-(2-((1-(2-((2,2-difluoropropyl)(4-methylpyridin-2-yl)carbamoyl)-5-methoxyphenyl)piperidin-4-yl)methoxy)pyridin-4-yl)propanoic acid] displayed an activation at 1 µM of 97%.
